Results published in PMC9820430, “New Affordable Methods for Large-Scale Isolation of Major Olive Secoiridoids and Systematic Comparative Study of Their Antiproliferative/Cytotoxic Effect on Multiple Cancer Cell Lines of Different Cancer Origins” (International Journal of Molecular Sciences, 2022).
Marks after values point to notes of the source that are not given here.

Assays:
Assay in all cases: EdU incorporation cell proliferation assay, 24 h
Format in all cases: cell-based, human
SK-MEL-28 = settings: for % EdU +ve ± SE (S-phase cells): 24 h treatment at EC50 concentration; for % Inhibition ± SE of cell proliferation: 24 h at EC50, normalized with the control
Protocol: (§1) For this purpose, ten cancer cell lines (i.e., MDA-MB 231, SK-BR-3, MCF-7, A2058, SK-MEL-28, AGS, HepG-2, PANC-1, H1299 and Hela) originating from breast, melanoma, stomach, hepatic, pancreatic, lung and cervical tumors were analyzed in parallel with control samples (i.e., the same cells treated only with 0.2% (v/v) DMSO). […] Subsequently, the treated cells were allowed to incorporate 5-ethynyl-2′-deoxyuridine (EdU) into replicating DNA according to the protocol described in detail in the Experimental Section. EdU, a thymidine analog, can be incorporated into DNA in vivo and detected later by using copper-catalyzed azide–alkyne cycloaddition (click reaction) without prior DNA denaturation. The pool of cells in the S phase can be then easily detected by fluorescence (FL) microscopy or by flow cytometry by analyzing the incorporation of EdU in replicating DNA of single cells. In this study, after EdU incorporation, the nuclei of the entire cell population were stained with Hoechst and imaged by confocal microscopy (Experimental Section). EdU-positive nuclei, marked by green FL, as well as the total number of nuclei, marked by blue FL, were enumerated by applying the Icy image analysis algorithm on the digital images acquired by confocal microscopy.
(§2) Human cancer cells were plated onto sterile glass coverslips (10-mm diameter, 5161063, ThermoFisher Scientific, Waltham, MA, USA) in 24-well tissue culture plates, at a density 5 times the density of cells seeded in 96-well plate and at a final medium volume of 500 μL. In order to obtain homogeneous plating, 250 μL of the medium was added directly to the wells already containing coverslips. Using a tip perpendicularly, coverslips were pressed in order to ensure their attachment to the bottom of the well. The cells were then seeded by adding 250 μL of single-cell suspension drop by drop following a cross path. Immediately after seeding, the plate was shaken back and forth at least ten times to achieve homogeneous plating. The cells were allowed to adhere overnight (~16 h) at 37 °C and 5% (v/v) CO2. The next day, a volume of 500 μL fresh medium was added to each well and the treatment with OOPs was initiated by adding directly to the wells 2 μL of OOPs from the 500× stock in DMSO and immediately mixed afterward by pipetting. […] Control cells were prepared under the same experimental conditions using DMSO instead of the OOPs’ solutions in DMSO at the same final concentration (0.2% (v/v) DMSO). […] Each condition was performed in duplicate. After treatment with the OOPs, live proliferating mammalian cells were labeled with 5-ethynyl-2’-deoxyuridine (EdU), a nucleoside analog of thymidine, using the Cell proliferation kit III (EdU-FM, PK-CA724-488FM, Promokine, Heidelberg, Germany). More specifically, a 20 μM EdU solution from a 10 mM stock in DMSO was prepared in a fresh culture medium. Culture supernatant was removed from treated cells to leave only 250 μL. An equal volume of 20 μM EdU solution was added and mixed with the medium to obtain a 10 μΜ EdU final concentration. The treated cells were incubated for the desired time of pulse length (2–4 h) under conditions optimal for each cell type depending on each cell line’s doubling time. Following incubation, cells were washed twice with PBS, then fixed with 4% (w/v) paraformaldehyde in PBS for 15 min at room temperature (RT), and subsequently washed twice with 3% (w/v) BSA for 5 min each time. Cells were permeabilized by incubation (20 min, RT, in the dark) with 0.5% (v/v) Triton-X 100 in PBS. Following permeabilization the cells were washed twice with 3% (w/v) BSA in PBS and incubated for 30 min with the reaction cocktail, according to the instructions of the Cell proliferation kit III (EdU-488; FM). After staining for replicating DNA, the cells were washed three times with 3% (w/v) BSA in PBS, and were then incubated (10 min, at RT) with Hoechst 33342 in PBS (1:10.000) to visualize all the nuclei. […]

MDA-MB 231 = settings: for % EdU +ve ± SE (S-phase cells): 24 h treatment at EC50 concentration; for % Inhibition ± SE of cell proliferation: 24 h at EC50, normalized with the control
Protocol: as §1, §2

SK-BR-3 = settings: for % EdU +ve ± SE (S-phase cells): 24 h treatment at EC50 concentration; for % Inhibition ± SE of cell proliferation: 24 h at EC50, normalized with the control
Protocol: as §1, §2

Hela = settings: for % Inhibition ± SE of cell proliferation: 24 h at EC50, normalized with the control; for % EdU +ve ± SE (S-phase cells): 24 h treatment at EC50 concentration
Protocol: as §1, §2

Row | Molecule | % EdU +ve ± SE (S-phase cells) (SK-MEL-28) | % EdU +ve ± SE (S-phase cells) (MDA-MB 231) [%] | % EdU +ve ± SE (S-phase cells) (SK-BR-3) [%] | % Inhibition ± SE of cell proliferation (SK-MEL-28) | % Inhibition ± SE of cell proliferation (MDA-MB 231) [%] | % Inhibition ± SE of cell proliferation (SK-BR-3) [%] | % Inhibition ± SE of cell proliferation (Hela) [%] | % EdU +ve ± SE (S-phase cells) (Hela) [%]
1 | C/C=C(/C=O)[C@@H](CC=O)CC(=O)OCCc1ccc(O)cc1 [compound 1, oleocanthal] | 15.0 ± 4.8 ^a % | 29.1 ± 2.3 | 9.5 ± 3.9 | – | – | – | – | –
2 | COC(=O)C1=COC(C)[C@@H](C=O)[C@@H]1CC(=O)OCCc1ccc(O)c(O)c1 (mixture of isomers) [3a,b, oleuropein aglycone] | 0.7 ± 0.3 ^a % | 19.7 ± 3.1 | 6.6 ± 3.5 | 24.7 ± 0.7 ^a % | 21.5 ± 2.1 | 16.9 ± 1.7 | 24.3 ± 2.1 | 20.9 ± 3.5
3 | ligstroside aglycone [4a,b] | 20.8 ± 5.1 ^a % | 33.0 ± 2.8 | 18.8 ± 1.3 | 4.7 ± 4.6 ^a % | 8.2 ± 1.8 | 4.8 ± 3.1 | 14.1 ± 6.3 | 31.2 ± 4.9
4 | C/C=C(/C=O)[C@@H](CC=O)CC(=O)OCCc1ccc(O)c(O)c1 [compound 2, oleacein] | 1.8 ± 0.4% | 25.5 ± 4.1 | 7.4 ± 0.7 | 20.3 ± 4.0% | 15.7 ± 2.4 | 16.2 ± 2.4 | 23.6 ± 7.9 | 21.7 ± 6.5
